From paper PMC9100109, “UnbiasedDTI: Mitigating Real-World Bias of Drug-Target Interaction Prediction by Using Deep Ensemble-Balanced Learning” (Molecules, 2022) come the findings set out here.

pIC50: −log10 of the molar value.

In the test the target is T1, ACE2: SARS-CoV-2 Spike complex (UniProt P0DTC2+Q9BYF1).
T1 construct: BPS Bioscience Cat: 79936; inferred from capture on a nickel-coated plate; inferred from detection with anti-mouse Fc-HRP; purchased BPS Bioscience 79936
In words: biochemical. It counts as binding, human ACE2 / SARS-CoV-2 spike.
By pIC50 is commonly meant the negative decadic logarithm of the IC50, by convention in mol/L. On to `CC(C)CN(C[C@@H](O)[C@H](Cc1ccccc1)NC(=O)O[C@H]1CO[C@H]2OCC[C@H]21)S(=O)(=O)c1ccc(N)cc1` [darunavir, Darunavir, reference compound], for which the pIC50 is 8.26 and the “Lab Results” value is reported as “P (key: P: positive (interacting); N: negative (non-interacting))”.
In the case of `CC(=O)N[C@H]1C(O)O[C@H](CO)[C@@H](O[C@@H]2O[C@H](CO)[C@H](O)[C@H](O)[C@H]2O)[C@@H]1O` (stereo partly shown) [N-Acetyllactosamine], the “Lab Results” value was “P (key: P: positive (interacting); N: negative (non-interacting))”.
Regarding `O=C(CO)N[C@H]1[C@H]([C@H](O)[C@H](O)CO)O[C@](O)(C(=O)O)C[C@@H]1O` [N-Glycolylneuraminic, N-glycolylneuraminic acid], the “Lab Results” value was “P (key: P: positive (interacting); N: negative (non-interacting))”.
In the case of `CC(=O)N[C@H]1[C@H]([C@H](O)[C@H](O)CO)OC(O)(C(=O)O)C[C@@H]1O` (stereo partly shown) [N-acetyl-neuraminic, N-acetyl-neuraminic acid], the pIC50 was 7.72 and the “Lab Results” value is “P (key: P: positive (interacting); N: negative (non-interacting))”.
For `CC(=O)N[C@H]1[C@H]([C@H](O)[C@H](O)CO)O[C@](OP(=O)([O-])OC[C@H]2O[C@@H](n3ccc(N)nc3=O)[C@H](O)[C@@H]2O)(C(=O)O)C[C@@H]1O.[Na+]` [cytidine-5-monophospho-N-acetylneuraminic acid sodium salt], the “Lab Results” value is given as “P (key: P: positive (interacting); N: negative (non-interacting))”.
On to `OC[C@H]1O[C@H](OC[C@H]2O[C@H](OC[C@H]3OC(O)[C@@H](O)[C@@H](O[C@H]4O[C@H](CO)[C@@H](O)[C@H](O)[C@@H]4O)[C@@H]3O)[C@@H](O)[C@@H](O[C@H]3O[C@H](CO)[C@@H](O)[C@H](O)[C@@H]3O)[C@@H]2O)[C@@H](O)[C@@H](O)[C@@H]1O` (stereo partly drawn) [3 α ,6 α -Mannopentaose], for which the “Lab Results” value was “N (key: P: positive (interacting); N: negative (non-interacting))”; the “activity against the complex of the spike protein and ACE2” value is “inactive”.
For `N.O=C(O)C(=O)C[C@@H](O)[C@@H](O)[C@H](O)[C@H](O)CO` [2-keto-3-deoxyoctonate ammonium salt, 2-Keto-3-deoxyoctonate ammonium salt], the “Lab Results” value is listed as “P (key: P: positive (interacting); N: negative (non-interacting))”.
